Here are results for four compounds from patent US5641800A, “1H-indole-1-functional sPLA2 inhibitors” (Eli Lilly and Company, priority 1995, dated 1997).

Experiment [1] concerns the target T1, Human Secreted Phospholipase A2 (Homo sapiens, UniProt P14555).
T1 sequence (P14555 21-144): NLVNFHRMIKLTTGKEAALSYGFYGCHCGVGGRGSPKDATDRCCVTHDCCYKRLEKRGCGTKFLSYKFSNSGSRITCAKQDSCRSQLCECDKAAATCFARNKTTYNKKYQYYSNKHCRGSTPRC
Put plainly: Human secreted phospholipase A2 inhibition tests on guinea pig lung tissue (pleural strip contraction). The format is tissue-based. The settings on record: guinea pig lung pleural strips, sPLA2-induced contraction, 37° C., compound added 30 min. prior; Schild slope 1, apparent KB = dissociation constant of the inhibitor; read-out: Tissue test secreted PLA2, Apparent KB. From the text:
Male Hartley strain guinea pigs (500-700 g) were killed by cervical dislocation and their heart and lungs removed intact and placed in aerated (95% 02 :5% CO2) Krebs buffer. Dorsal pleural strips (4×1×25 mm) were dissected from intact parenchymal segments (8×4×25 mm) cut parallel to the outer edge of the lower lung lobes. Two adjacent pleural strips, obtained from a single lobe and representing a single tissue sample, were tied at either end and independently attached to a metal support rod. One rod was attached to a Grass force-displacement transducer (Model FTO3C, product of Grass Medical Instruments Co., Quincy, Mass., USA). […] All tissues were placed in 10 ml jacketed tissue baths maintained at 37° C. The tissue baths were continuously aerated and contained a modified Krebs solution of the following composition (millimolar) NaCl, 118.2; KCl, 4.6; CaCl2.2H2 O, 2.5; MgSO4.7H2 O, 1.2; NaHCO3, 24.8; KH2 PO4, 1.0; and dextrose, 10.0. Pleural strips from the opposite lobes of the lung were used for paired experiments.
Initially tissues were challenged 3 times with KCl (40 mM) to test tissue viability and to obtain a consistent response. After recording the maximal response to KCl, the Elssues were washed and allowed to return to baseline before the next challenge. Cumulative concentration-response curves were obtained from pleural strips by increasing the agonist concentration (sPLA2) in the tissue bath by half-log10 increments while the previous concentration remained in contact with the tissues (Ref.1, supra.) Agonist concentration was increased after reaching the plateau of the contraction elicited by the preceding concentration. One concentration-response curve was obtained from each tissue. To minimize variability between tissues obtained from different animals, contractile responses were expressed as a percentage of the maximal response obtained with the final KCl challenge. […]
Data from different experiments were pooled and presented as a percentage of the maximal KCl responses (mean±S.E.). To estimate the drug induced rightward shifts in the concentration response curves, the curves were analyzed simultaneously using statistical nonlinear modeling methods similar to those described by Waud (1976), Equation 26, p. […] The Schild slope was determined to be 1, using statistical nonlinear modeling methods similar to those described by Waud 1976), Equation 27, p. […]
To estimate the drug-induced suppression of the maximal responses, sPLA2 responses (10 ug/ml) were determined in the absence and presence of drug, and percent suppression was calculated for each pair of tissues. […]

Another experiment has as its target T2, human secreted PLA2 (Homo sapiens, UniProt P14555).
T2 sequence (P14555 21-144): T1 sequence (P14555 21-144)
Put plainly: Chromogenic assay, inhibition of recombinant human secreted phospholipase A2. The experiment is classed as biochemical. The conditions noted are these: recombinant human sPLA2, diheptanoyl thio-PC substrate, pH 7.5, 40° C., 30 minutes, 405 nm; ± mean deviation (3-4 tests). From the text: The following chromogenic assay procedure was used to identify and evaluate inhibitors of recombinant human secreted phospholipase A2. The assay described herein has been adapted for high volume screening using 96 well microtiter plates. A general description of this assay method is found in the article, "Analysis of Human Synovial Fluid Phospholipase A2 on Short Chain Phosphatidylcholine-Mixed Micelles: Development of a Spectrophotometric Assay Suitable for a Microtiterplate Reader", by Laure J. Reynolds, Lori L. Hughes, and Edward A Dennis, Analytical Biochemistry,204, pp. 190-197, 1992 (the disclosure of which is incorporated herein by reference):
Bovine Serum Albumin (fatty acid free) (1 g/L) (Sigma A-7030, product of Sigma Chemical Co. St. Louis Mo., USA)
racemic 1,2-bis(heptanoylthio)-1,2-dideoxy-sn-glycero-3-phosphorylcholine
A measured volume of racemic dipheptanoyl thio PC supplied in chloroform at a concentration of 100 mg/ml is taken to dryness and redissolved in 10 millimolar TRITON X 100™ nonionic detergent aqueous solution. Reaction Buff added to the solution, then DTNB to give the Reaction Mixture.
The reaction mixture thus obtained contains […] diheptanoly thio-PC substrate, 0.29 mm Triton X-100™ detergent, and 0.12 mm DTMB in a buffered aqueous solution at pH 7.5.
1. Add 0.2 ml reaction mixture to all wells;
2. Add 10 ul test compound (or solvent blank) to appropriate wells, mix 20 seconds;
3. Add 50 nanograms of sPLA2 (10 microliters) to appropriate wells;
4. Incubate plate at 40° C. for 30 minutes;
5. Read absorbance of wells at 405 nanometers with an automatic plate reader.
All compounds were tested in triplicate. Typically, compounds were tested am a final concentration of 5 ug/ml. […] Lack of color development at 405 nanometers evidenced inhibition. Compounds initially found to be active were reassayed to confirm their activity and, if sufficiently active, IC50 values were determined. […] In all cases, % inhibition measured at 405 nanometers generated by enzyme reactions containing inhibitors relative to the uninhibited control reactions was determined. Each sample was titrated in triplicate and result values were averaged for plotting and calculation of IC50 values. IC50 were determined by plotting log concentration versus inhibition values in the range from 10-90% inhibition.

As to `Cc1c(Cc2ccccc2)c2cccc(OCC(=O)O)c2n1CC(N)=O` [Example 1, [[1-(2-Amino-2-oxoethyl)-2-methyl-3-(phenylmethyl)-1H-indol-7-yl]oxy]acetic acid], the Kb in experiment [1] came out at 390 ± 120 nM. Also, on human secreted PLA2, the IC50 was determined as 13 ± 2 nM.
For `CCc1c(Cc2ccccc2)c2ccc(OCCCC(=O)O)cc2n1CC(N)=O` [Example 2, 4-[[1-(2-amino-2-oxoethyl)-2-ethyl-3-(phenylmethyl)-1H-indol-6-yl]oxy]butyric acid], in that order: 1470 ± 340 nM and 33 ± 3 nM.
The like results for `CCc1c(Cc2ccccc2)c2ccc(OCCCP(=O)(O)O)cc2n1CC(N)=O` [Example 3, [3-[[1-(2-amino-2-oxoethyl)-2-ethyl-3-(phenylmethyl)-1H-indol-6-yl]oxy]propyl]phosphonic acid] were, in that order, 415 ± 51 nM and 35 ± 8 nM.
For `Cc1c(Cc2ccccc2)c2cccc(OCC(=O)O)c2n1CC(=O)NN` [Example 4, [[1-(2-hydrazino-2-oxoethyl)-2-methyl-3-(phenylmethyl)-1H-indol-7-yl]oxy]acetic acid], in that order: 1670 ± 280 nM and 200 ± 90 nM.

One may read the IC50 as the concentration needed to halve the response being measured.
